Measurements as given in paper PMC12396409, “Screening and hit evaluation of a microbial metabolite library against the pathogenic Plasmodium falciparum and Toxoplasma gondii parasites” (International Journal for Parasitology: Drugs and Drug …, 2025).
Like-named read-outs stand apart in the source and are kept apart here. Where a SMILES comes first, the peptide text is derived from it. [ ]: non-standard residue; d: D form. Aoe = N[C@@H](CCCCCC(=O)[C@@H]1CO1)C(=O)O

What was measured:
[1] = test system: P. falciparum 3D7 parasites; test: P. falciparum growth inhibition assay, 2-cycle (120 h treatment), delayed-death screen and dose-response; assay type: cell-based, Plasmodium falciparum; details: for activity at 2 µg/mL: Plasmodium falciparum, parasite screen 2 μg/mL
[2] = test system: P. falciparum 3D7 parasites; test: P. falciparum growth inhibition assay, 1-cycle (72 h treatment), SYBR DNA staining (library screen at 2 μg/mL and dose-response); assay type: cell-based, Plasmodium falciparum; details: for activity at 2 µg/mL: Plasmodium falciparum, parasite screen 2 μg/mL
[3] = test system: T. gondii RH strain (RH-Tub-eYFP) tachyzoites; test: microbe, parasite or virus in culture; assay type: cell-based, Toxoplasma gondii; details: 72 h; for percent parasite growth at 2 µg/mL: Toxoplasma gondii, parasite screen 2 μg/mL
[4] = library screen at 2 μg/mL, 120 h, % growth, replicate 1
[5] = library screen at 2 μg/mL, 120 h, % growth, replicate 2
[6] = library screen at 2 μg/mL, 72 h, % growth, replicate 1
[7] = library screen at 2 μg/mL, 72 h, % growth, replicate 2
[8] = library screen at 2 μg/mL, % growth, replicate 1
[9] = library screen at 2 μg/mL, % growth, replicate 2
[10] = 3D7, P. falciparum, 120 h, % growth, replicate 1, read-out: Pf_120h_%Growth_Rep1
[11] = 3D7, P. falciparum, 120 h, % growth, replicate 2, read-out: Pf_120h_%Growth_Rep2
[12] = 3D7, P. falciparum, 72 h, % growth, replicate 1, read-out: Pf_72h_%Growth_Rep1
[13] = 3D7, P. falciparum, 72 h, % growth, replicate 2, read-out: Pf_72h_%Growth_Rep2
[14] = T. gondii, % growth, replicate 1, read-out: Tg_72h_%Growth_Rep1
[15] = T. gondii, % growth, replicate 2, read-out: Tg_72h_%Growth_Rep2
[16] = P. falciparum 3D7, 120 h, parasite screen at 2 μg/mL, % growth, replicate 1
[17] = P. falciparum 3D7, 120 h, parasite screen at 2 μg/mL, % growth, replicate 2
[18] = P. falciparum 3D7, 72 h, parasite screen at 2 μg/mL, % growth, replicate 1
[19] = P. falciparum 3D7, 72 h, parasite screen at 2 μg/mL, % growth, replicate 2
[20] = T. gondii, parasite screen at 2 μg/mL, % growth, replicate 1
[21] = T. gondii, parasite screen at 2 μg/mL, % growth, replicate 2

`C[C@@H]1NC(=O)[C@H](CCCCCC(=O)[C@@H]2CO2)NC(=O)[C@H]2CCCN2C(=O)[C@H](Cc2ccccc2)NC1=O` [Alaninechlamydocin, 1-] (cyclo(AF[dP][Aoe])) gave a Pf_120h_%Growth_Rep1 [1, 4] of 12.83%, a Pf_120h_%Growth_Rep2 [1, 5] of -6.34% and a Pf_72h_%Growth_Rep1 [2, 6] of 2.42%. The Pf_72h_%Growth_Rep2 [2, 7] was 0.98%, the Tg_72h_%Growth_Rep1 [3, 8] was 2.60% and the Tg_72h_%Growth_Rep2 [3, 9] was 2.26%.

In the case of `CCCC[C@@]1(OC(=O)CCC(=O)O)CC[C@]2(CC[C@H](C)[C@@H](C/C=C(C)/C=C/[C@H](O)[C@@H](C)/C=C/C(=O)O)O2)O[C@H]1/C=C/C(C)=C/C(=O)O` [Reveromycin A], the activity at 2 µg/mL [1, 10] is reported as 69.8%, the activity at 2 µg/mL [1, 11] is reported as 88.5% and the activity at 2 µg/mL [2, 12] is reported as 75.9%. For the same compound, the activity at 2 µg/mL [2, 13] was 65.4%, the percent parasite growth at 2 µg/mL [3, 14] was 119% and the percent parasite growth at 2 µg/mL [3, 15] was 88.8%.

`CC[C@H]1OC(=O)[C@H](C)[C@@H](O[C@H]2C[C@@](C)(O)[C@@H](O)[C@H](C)O2)[C@H](C)[C@@H](O[C@@H]2O[C@H](C)C[C@H](N(C)C)[C@H]2O)[C@](C)(O)C[C@@H](C)C(=O)[C@H](C)[C@@H](O)[C@]1(C)O` [Erythromycin C] showed a Pf_120h_%Growth_Rep1 [1, 4] of 93.33%, a Pf_120h_%Growth_Rep2 [1, 5] of 77.67% and a Pf_72h_%Growth_Rep1 [2, 6] of 81.84%. It also gave a Pf_72h_%Growth_Rep2 [2, 7] of 74.13%, a Tg_72h_%Growth_Rep1 [3, 8] of 45.84% and a Tg_72h_%Growth_Rep2 [3, 9] of 43.52%.

`CO[C@H]1C[C@@H]2CC[C@@H](C)[C@@](O)(O2)C(=O)C(=O)N2CCCC[C@H]2C(=O)O[C@H]([C@H](C)C[C@@H]2CC[C@@H](OP(C)(C)=O)[C@H](OC)C2)CC(=O)[C@H](C)/C=C(\C)[C@@H](O)[C@@H](OC)C(=O)[C@H](C)C[C@H](C)/C=C/C=C/C=C/1C` [Ridaforolimus] gave an activity at 2 µg/mL ([1]; 3D7, 120 h, P. falciparum, 120 h, % growth, replicate 1, read-out: Pf_120h_%Growth_Rep1) of 75.1%, an activity at 2 µg/mL ([1]; 3D7, 120 h, P. falciparum, 120 h, % growth, replicate 2, read-out: Pf_120h_%Growth_Rep2) of 55.3% and an activity at 2 µg/mL ([2]; 3D7, 72 h, P. falciparum, 72 h, % growth, replicate 1, read-out: Pf_72h_%Growth_Rep1) of 68.5%. It also gave an activity at 2 µg/mL ([2]; 3D7, 72 h, P. falciparum, 72 h, % growth, replicate 2, read-out: Pf_72h_%Growth_Rep2) of 69.8%, a percent parasite growth at 2 µg/mL [3, 14] of 128% and a percent parasite growth at 2 µg/mL [3, 15] of 84.7%.

`CON=C1CC2(CC3CC(CC=C(C)CC(C)C=CC=C4COC5C(O)C(C)=CC(C(=O)O3)C45O)O2)OC(C(C)=CC(C)C)C1C` (stereo not drawn) [BIA-M1298] was tested, and the Pf_120h_%Growth_Rep1 [1, 16] was -5.10%, the Pf_120h_%Growth_Rep2 [1, 17] was 5.91% and the Pf_72h_%Growth_Rep1 [2, 18] was 17.45%. For the same compound, the Pf_72h_%Growth_Rep2 [2, 19] was -0.02%, the Tg_72h_%Growth_Rep1 [3, 20] was 102.84% and the Tg_72h_%Growth_Rep2 [3, 21] was 95.78%.

Work on `CC(=O)N[C@H]1[C@H](O[C@@H]2c3ccc(c(Cl)c3)Oc3cc4cc(c3O)Oc3ccc(cc3Cl)C[C@H]3NC(=O)[C@H](N)c5ccc(O)c(c5)Oc5cc(O)cc(c5)[C@H](NC3=O)C(=O)N[C@H]4C(=O)N[C@H]3C(=O)N[C@@H]2C(=O)N[C@H](C(=O)O)c2cc(O)cc(O[C@H]4O[C@H](CO)[C@@H](O)[C@H](O)[C@@H]4O)c2-c2cc3ccc2O)O[C@H](CO)[C@@H](O)[C@@H]1O` [Teicoplanin A3-1] yielded a Pf_120h_%Growth_Rep1 ([1]; P. falciparum, 120 h, screen at 2 μg/mL, replicate 1) of 162.68%, a Pf_120h_%Growth_Rep2 ([1]; P. falciparum, 120 h, screen at 2 μg/mL, replicate 2) of 89.82% and a Pf_72h_%Growth_Rep1 ([2]; P. falciparum, 72 h, screen at 2 μg/mL, replicate 1) of 83.89%. The Pf_72h_%Growth_Rep2 ([2]; P. falciparum, 72 h, screen at 2 μg/mL, replicate 2) was 89.40%, the Tg_72h_%Growth_Rep1 ([3]; T. gondii, screen at 2 μg/mL, replicate 1) was 92.73% and the Tg_72h_%Growth_Rep2 ([3]; T. gondii, screen at 2 μg/mL, replicate 2) was 87.18%.

`CCC(C)C1OC2(CCC1C)CC1CC(CC=C(C)C(OC3CC(OC)C(OC4CC(OC)C(O)C(C)O4)C(C)O3)C(C)C=CC=C3COC4C(O)C(C)=CC(C(=O)O1)C34O)O2` (stereo not drawn) [BIA-I1119] showed a Pf_120h_%Growth_Rep1 ([1]; P. falciparum 3D7, 120 h, library screen at 2 μg/mL, % growth, replicate 1) of 82.92%, a Pf_120h_%Growth_Rep2 ([1]; P. falciparum 3D7, 120 h, library screen at 2 μg/mL, % growth, replicate 2) of 106.39% and a Pf_72h_%Growth_Rep1 ([2]; P. falciparum 3D7, 72 h, library screen at 2 μg/mL, % growth, replicate 1) of 86.44%. For the same compound, the Pf_72h_%Growth_Rep2 ([2]; P. falciparum 3D7, 72 h, library screen at 2 μg/mL, % growth, replicate 2) was 71.84%, the Tg_72h_%Growth_Rep1 ([3]; T. gondii RH, library screen at 2 μg/mL, % growth, replicate 1) was 98.36% and the Tg_72h_%Growth_Rep2 ([3]; T. gondii RH, library screen at 2 μg/mL, % growth, replicate 2) was 101.63%.

With `C[C@@H]1C[C@H]2O[C@@H]2/C=C\C=C\C(=O)Cc2c(Cl)c(O)cc(O)c2C(=O)O1` [Radicicol] the activity at 2 µg/mL [1, 10] was 64.2%, the activity at 2 µg/mL [1, 11] was 55% and the activity at 2 µg/mL [2, 12] was 57.5%. The activity at 2 µg/mL [2, 13] was 42.5%, the percent parasite growth at 2 µg/mL [3, 14] was 52.9% and the percent parasite growth at 2 µg/mL [3, 15] was 57.6%.

`COc1ccc2c(c1OC)C[N+]1(C)CCc3cc4c(cc3C1C2)OCO4.[I-]` (stereo not drawn) [BIA-M1962] showed a Pf_120h_%Growth_Rep1 [1, 16] of 5.27%, a Pf_120h_%Growth_Rep2 [1, 17] of 17.95% and a Pf_72h_%Growth_Rep1 [2, 18] of 14.79%. The Pf_72h_%Growth_Rep2 [2, 19] was 27.45%, the Tg_72h_%Growth_Rep1 [3, 20] was 93.48% and the Tg_72h_%Growth_Rep2 [3, 21] was 106.99%.
